Assay in all cases: NCI anticancer screen, dose series, 48 h
Test [1] deals with HS 578T breast.
Test [2] deals with RPMI-8226 leukemia.
Test [3] has as its system A498 renal.
Test [4] deals with RXF 393 renal.
Test [5] concerns MCF7 breast.
The subject of test [6] is K-562 leukemia.
Test [7] concerns OVCAR-8 ovarian.
Test [8] deals with TK-10 renal.
The test system of test [9] is HOP-92 NSCLC.
Test [10] has as its system SK-OV-3 ovarian.

Each structure is given as a SMILES string.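 How tested: cells in 96-well plates exposed to compound for 48 hours at five concentrations. TGI is the concentration that stops growth completely.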

As for `CCOC(=O)c1cc(C2(O)CCN(Cc3ccccc3)C2=O)c(-c2cc(C)no2)[nH]1` (stereo not given), the TGI in test [1] is greater than 100 µM; in test [2], greater than 100 µM; in test [3] it was greater than 100 µM; in [4], 65.7 µM; in [5] it was greater than 100 µM; in test [6], greater than 100 µM. The TGI in test [7] and in test [8] was greater than 100 µM throughout.

On to `O=C1O[C@@H](c2ccccc2)C[C@@H]1CN1CCOCC1`, for which the TGI in test [2], in [3], in [9], in test [4], in test [10] and in test [6] was greater than 100 µM in each case. For the same compound, the TGI in test [7] and in test [8] was greater than 100 µM each time.

For `CC1(C)CC2(C)CC1CC2O` (stereo not given), the TGI in test [1], in test [2], in test [4], in [5], in test [10] and in [6] was greater than 100 µM in each case. The TGI in test [7] and in test [8] was greater than 100 µM throughout.

In the case of `CC(C)(C)OC(=O)NC(C)(C)C(=O)NCCC(=O)O`, the TGI in test [1], in [2], in test [3], in test [4], in [5] and in test [10] was greater than 100 µM each time. The TGI in test [6], in [7] and in [8] was greater than 100 µM throughout.

With `C=CCN(CC=C)Cn1c(=S)sc2ccccc21`, the TGI in test [1], in test [9], in [4], in test [5], in test [10] and in test [7] was greater than 100 µM each time. For the same compound, in test [8], the TGI is greater than 100 µM.

As for `Cc1cc(-c2nc3ccccc3s2)ccc1NS(=O)(=O)O`, the TGI in test [1] was greater than 59.5 µM; in test [2] it was greater than 10.5 µM; in [3] it was greater than 100 µM; in test [9], greater than 100 µM; in test [4], greater than 100 µM; in test [10] it was greater than 100 µM. In addition, the TGI in test [6], in test [7] and in test [8] was greater than 100 µM in each case.

Regarding `Cc1sc2nc3n(c(=O)c2c1C)N=CN(c1ccccc1)C3`, the TGI in [2] is greater than 100 µM; in [3] it was greater than 100 µM; in [9], 79.8 µM; in test [4] it was greater than 100 µM; in [5], greater than 100 µM; in test [10], greater than 100 µM. Further, the TGI in test [6], in test [7] and in [8] was greater than 100 µM each time.

As to `CC12CC(c3ccccc3O1)C(C(=O)Nc1ccc(F)cc1)C(=O)N2` (stereo not given), the TGI in test [1], in test [2], in test [3], in test [5], in test [10] and in test [6] was greater than 100 µM each time. In test [7], this compound came in with a TGI greater than 100 µM.

Turning to `CCOc1ccc(N/C(=C(/C(Cl)=C(/Cl)NCCN)[N+](=O)[O-])n2nnc3ccccc32)cc1`, the TGI in test [1] was 98.2 µM; in [2], greater than 100 µM; in test [3], greater than 100 µM; in test [5], greater than 100 µM; in test [10] it was greater than 100 µM; in test [6], greater than 100 µM. In addition, in test [7], the TGI worked out at 30.4 µM.

With `C[N+](C)(C)CC(=O)N/N=c1\cc(C(=O)Nc2ccc(N=O)cc2C#N)oc2cc(O)ccc12`, the TGI in test [3], in [9], in test [4], in test [10], in test [6] and in [7] was greater than 100 µM in each case. In test [8], the TGI was greater than 100 µM.

Take `CCCCc1c(O)nc(Nc2nc3ccccc3[nH]2)[nH]c1=O`: the TGI in [1] was 88 µM; in [2], greater than 100 µM; in test [3], greater than 100 µM; in test [4], greater than 100 µM; in test [5], greater than 100 µM; in [10] it was greater than 100 µM. Further, the TGI in test [6], in test [7] and in test [8] was greater than 100 µM in each case.

Turning to `O=C1NC(c2ccc(O)cc2)C2CCC1C2` (stereo not given), the TGI in [2], in [3], in [9], in [10], in [6] and in test [7] was greater than 100 µM in each case. In addition, the TGI in [8] is greater than 100 µM.

In the case of `Cc1c(Cl)cccc1NC(=O)C(=O)C1C(=O)CC(C)(C)CC1=O`, the TGI in test [2], in test [3], in test [9], in [4], in [10] and in test [6] was greater than 100 µM in each case. Besides, the TGI in [7] and in test [8] was greater than 100 µM in each case.

In the case of `O=C(/C=C/c1ccccc1)/C=C/c1ccccc1O`, the TGI was 43.8 µM in [2]; 70.9 µM in [3]; greater than 100 µM in test [9]; 37.3 µM in test [4]; 57.5 µM in [10]; 38.9 µM in test [6]. Also, the TGI came to 30.6 µM in test [7] and 96.3 µM in [8].

Regarding `CCOC(=O)c1c(NC(=O)c2ccccc2)sc2c1CCCC2`, the TGI in test [1], in [2], in test [3], in test [4], in test [5] and in [10] was greater than 100 µM in each case. Moreover, the TGI in [6], in test [7] and in [8] was greater than 100 µM throughout.

Turning to `CCCN=C1CC(C)Nc2ccccc2N1` (stereo not given), the TGI in test [1], in test [2], in test [3], in [4], in test [10] and in test [6] was greater than 100 µM throughout. Besides, the TGI in test [7] and in [8] was greater than 100 µM in each case.

With `COc1ccc(C2C(Cl)C(=O)N2NC(=O)c2ccc(NC(C)=O)cc2)cc1` (stereo not given), the TGI in test [3], in [9], in test [4], in test [10], in test [6] and in test [7] was greater than 100 µM in each case. In [8], this compound registered a TGI greater than 100 µM.

`CO[C@@H](C(=O)OC1C=CC2(CC1)C(=O)N(C)c1ccccc12)c1ccccc1` (stereo not given in full): the TGI in [2], in [3], in test [9], in [5], in [10] and in test [6] was greater than 100 µM in each case. The TGI in test [7] and in [8] was greater than 100 µM in each case.

Take `Cc1cc(=O)cc2sc3c(C)cccc3nc1-2`: the TGI in test [2] was 97 µM; in test [3] it was 41.7 µM; in test [9] it was 85.9 µM; in [4] it was greater than 100 µM; in test [10] it was greater than 100 µM; in test [6] it was 91.2 µM. Further, the TGI in [7] was greater than 100 µM; in test [8] it was 77.4 µM.

For `O=C1CC(O)c2c1csc2Br` (stereo not given), the TGI in test [1] is 72.4 µM; in [2] it was 74.5 µM; in test [4], 38.1 µM; in test [5], 45.7 µM; in test [10], greater than 100 µM; in test [6], 76.7 µM. In addition, the TGI in test [7] is 62.4 µM; in test [8], 38.2 µM.

In the case of `Cc1ccccc1C(C#N)C(=O)C(=O)Nc1nc([N+](=O)[O-])cs1` (stereo not given), the TGI in test [3], in test [4], in test [10], in test [7] and in test [8] was greater than 100 µM in each case.

As for `CCSc1nnc(CSc2nc(-c3ccccc3)c(-c3ccccc3)[nH]2)n1-c1ccccc1`, the TGI in test [2] stood at 46.1 µM; in [3], 34.6 µM; in test [9] it was 38.5 µM; in [4], 43.5 µM; in test [10], 60.8 µM; in test [6] it was 56.3 µM. The TGI came to 51.9 µM in test [7] and 57.1 µM in [8].

For the compound `Cc1c(/C=N\NC(=S)N2CCN(C(=S)N/N=C\c3c(C)n(C)n(-c4ccccc4)c3=O)CC2)c(=O)n(-c2ccccc2)n1C`, the TGI is greater than 100 µM in [1]; greater than 100 µM in test [3]; greater than 100 µM in test [9]; greater than 100 µM in [4]; greater than 100 µM in test [10]; 33.9 µM in [8].

For `COc1ccc(/C(=C/n2ccnc2)C(=O)c2ccc(OC)c(OC)c2)cc1`, the TGI in [2], in [3], in test [9], in test [6], in test [7] and in test [8] was greater than 100 µM throughout.

Regarding `Cc1ccc(S(=O)(=O)N2CCN3C(=O)c4ccccc4C32c2ccc(F)cc2)cc1` (stereo not given), the TGI in [1] was greater than 100 µM; in test [2], 83.3 µM; in test [3], 63.5 µM; in test [4] it was greater than 100 µM; in [5], greater than 100 µM; in test [10] it was greater than 100 µM. Besides, the TGI in [6], in test [7] and in test [8] was greater than 100 µM throughout.

`COC1O[C@H]2CCN(C(=O)OCc3ccccc3)[C@H]2[C@H]1OCc1ccccc1` (stereo not given in full): the TGI in test [2] is greater than 100 µM; in test [3], greater than 100 µM; in test [9], greater than 86 µM; in [4] it was greater than 100 µM; in [10], 55.3 µM; in test [6] it was greater than 100 µM. In addition, the TGI in test [7] and in test [8] was greater than 100 µM each time.

Take `CC1C(c2cc(C(C)(C)C)c(O)c(C(C)(C)C)c2)c2cc3c(cc2OC1N1CCOCC1)OCO3` (stereo not given): the TGI in test [1] was 10.6 µM; in test [2], greater than 100 µM; in [5], greater than 100 µM; in test [6] it was greater than 100 µM; in test [7] it was 60 µM; in test [8], 31.2 µM.

Turning to `CCOC(=O)C(OCC1CC=CCC1)Sc1ccccc1` (stereo not given), the TGI in [2], in test [3], in test [9], in test [10], in [6] and in test [7] was greater than 100 µM throughout. Further, the TGI in test [8] was greater than 100 µM.

For `O=C1CC2C=CC(O)C(C1)C2` (stereo not given), the TGI is greater than 100 µM in [1]; greater than 100 µM in [2]; greater than 100 µM in test [3]; 12.2 µM in [4]; greater than 100 µM in test [5]; greater than 100 µM in test [10]. For the same compound, the TGI in test [6], in [7] and in test [8] was greater than 100 µM throughout.

In the case of `COC(=O)c1cc(CC(C)C)c2c(c1)[nH]c1ccccc12`, the TGI in [3], in [9], in test [10], in test [6], in test [7] and in test [8] was greater than 100 µM each time.

On to `CC(C)CC(N)C(=O)OCN1C(=O)C2C3C=CC(C2C1=O)C1C2C(=O)N(COC(=O)C(N)CC(C)C)C(=O)C2C31` (stereo not given), for which the TGI in [2] was greater than 78.6 µM; in test [3] it was greater than 100 µM; in test [9], greater than 100 µM; in test [4], greater than 100 µM; in test [10], greater than 100 µM; in test [6] it was greater than 100 µM. Further, the TGI in test [7] and in test [8] was greater than 100 µM each time.

Take `CCCCN(CC)c1nc(C)nc2c1c(C)c(C)n2-c1c(C)cc(C)cc1C`: the TGI turned out to be 38 µM in [1]; 30.1 µM in test [2]; 31.3 µM in test [3]; 21.5 µM in test [9]; 19.7 µM in [4]; 32.9 µM in test [10]. Further, the figures for the TGI in test [6], in test [7] and in test [8] were 29.8 µM, 28.5 µM and 31.1 µM, respectively.

On to `COC(=O)C(C#N)=C1c2ccccc2Oc2ccccc21`, for which the TGI is 49.3 µM in test [2]; greater than 100 µM in test [3]; 87.6 µM in test [9]; greater than 100 µM in [4]; greater than 100 µM in test [10]; greater than 100 µM in [6]. The TGI in test [7] and in test [8] was greater than 100 µM throughout.

Consider `CC(C)C(Sc1nc(-c2ccccc2)c(-c2ccccc2)[nH]1)C(=O)NNC(=S)Nc1ccccc1` (stereo not given), for which the TGI is 39.6 µM in [2]; 44.5 µM in test [3]; 34.3 µM in test [9]; 45.3 µM in test [10]; greater than 100 µM in [7]; greater than 100 µM in [8].

(Values after PubChem BioAssay (NCI).)
